{"source": "the supplement of paper PMC10307832", "assay_in_all_cases": "relative viability (nuclei count vs DMSO), 5 days (fraction); higher = more cells survive", "key": {"[1]": {"test_system": "NCI-H2126", "method_in_brief": "(§1)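 Lung cancer cell lines, seeded in 1536-well plates, were treated the following day by pin tool with a single drug or with five library-drug doses (not always all listed) in √10 steps on top of a fixed anchor-drug dose. Cells were fixed and nuclei stained in one step after 5 days, and nuclei were counted. Relative viability is the nuclei count for treated wells divided by that for vehicle wells, reported as medians of duplicate plates.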"}, "[2]": {"test_system": "NCI-H1993", "method_in_brief": "as §1"}, "[3]": {"test_system": "ABC-1", "method_in_brief": "as §1"}, "[4]": {"test_system": "HCC-15", "method_in_brief": "as §1"}, "[5]": {"test_system": "NCI-H1355", "method_in_brief": "as §1"}, "[6]": {"test_system": "PC-14", "method_in_brief": "as §1"}, "[7]": {"test_system": "UMC-11", "method_in_brief": "as §1"}, "[8]": {"test_system": "NCI-H2347", "method_in_brief": "as §1"}, "[9]": {"test_system": "EPLC-272H", "method_in_brief": "as §1"}, "[10]": {"test_system": "SW 1573", "method_in_brief": "as §1"}, "[11]": {"test_system": "COR-L23", "method_in_brief": "as §1"}}, "data": [{"smiles": "CC(=O)O[C@@]12CO[C@@H]1C[C@H](O)[C@@]1(C)C(=O)[C@H](O)C3=C(C)[C@@H](OC(=O)[C@H](O)[C@@H](NC(=O)OC(C)(C)C)c4ccccc4)C[C@@](O)([C@@H](OC(=O)c4ccccc4)[C@H]21)C3(C)C", "note": "[Docetaxel] + CC(C)C[C@H](NC(=O)[C@H](Cc1ccccc1)NC(=O)c1cnccn1)B(O)O [Bortezomib] (partner 0.002 µM)", "values": [{"measurement": "relative viability", "setting": "[1]; first compound 0.000632 µM", "result": 1.09}, {"measurement": "relative viability", "setting": "[1]; first compound 0.002 µM", "result": 1.04}, {"measurement": "relative viability", "setting": "[1]; first compound 0.006325 µM", "result": 0.427}, {"measurement": "relative viability", "setting": "[1]; first compound 0.02 µM", "result": 0.288}, {"measurement": "relative viability", "setting": "[2]; first compound 0.0002 µM", "result": 0.961}, {"measurement": "relative viability", "setting": "[2]; first compound 0.000632 µM", "result": 1.06}, {"measurement": "relative viability", "setting": "[2]; first compound 0.002 µM", "result": 0.798}, {"measurement": "relative viability", "setting": "[2]; first compound 0.006325 µM", "result": 0.608}, {"measurement": "relative viability", "setting": "[2]; first compound 0.02 µM", "result": 0.399}, {"measurement": "relative viability", "setting": "[3]; first compound 0.0002 µM", "result": 0.298}, {"measurement": "relative viability", "setting": "[3]; first compound 0.000632 µM", "result": 0.334}, {"measurement": "relative viability", "setting": "[3]; first compound 0.002 µM", "result": 0.306}, {"measurement": "relative viability", "setting": "[3]; first compound 0.006325 µM", "result": 0.247}, {"measurement": "relative viability", "setting": "[3]; first compound 0.02 µM", "result": 0.278}, {"measurement": "relative viability", "setting": "[4]; first compound 0.0002 µM", "result": 0.807}, {"measurement": "relative viability", "setting": "[4]; first compound 0.000632 µM", "result": 0.78}, {"measurement": "relative viability", "setting": "[4]; first compound 0.002 µM", "result": 0.231}, {"measurement": "relative viability", "setting": "[4]; first compound 0.006325 µM", "result": 0.216}, {"measurement": "relative viability", "setting": "[4]; first compound 0.02 µM", "result": 0.157}, {"measurement": "relative viability", "setting": "[5]; first compound 0.0002 µM", "result": 1.2}, {"measurement": "relative viability", "setting": "[5]; first compound 0.000632 µM", "result": 1.14}, {"measurement": "relative viability", "setting": "[5]; first compound 0.002 µM", "result": 0.673}, {"measurement": "relative viability", "setting": "[5]; first compound 0.006325 µM", "result": 0.302}, {"measurement": "relative viability", "setting": "[5]; first compound 0.02 µM", "result": 0.224}, {"measurement": "relative viability", "setting": "[6]; first compound 0.0002 µM", "result": 0.826}, {"measurement": "relative viability", "setting": "[6]; first compound 0.000632 µM", "result": 0.803}, {"measurement": "relative viability", "setting": "[6]; first compound 0.002 µM", "result": 0.132}, {"measurement": "relative viability", "setting": "[6]; first compound 0.006325 µM", "result": 0.103}, {"measurement": "relative viability", "setting": "[6]; first compound 0.02 µM", "result": 0.0579}, {"measurement": "relative viability", "setting": "[7]; first compound 0.0002 µM", "result": 0.747}, {"measurement": "relative viability", "setting": "[7]; first compound 0.000632 µM", "result": 0.763}, {"measurement": "relative viability", "setting": "[7]; first compound 0.002 µM", "result": 0.162}, {"measurement": "relative viability", "setting": "[7]; first compound 0.006325 µM", "result": 0.197}, {"measurement": "relative viability", "setting": "[7]; first compound 0.02 µM", "result": 0.128}, {"measurement": "relative viability", "setting": "[8]; first compound 0.0002 µM", "result": 0.805}, {"measurement": "relative viability", "setting": "[8]; first compound 0.000632 µM", "result": 0.832}, {"measurement": "relative viability", "setting": "[8]; first compound 0.002 µM", "result": 0.326}, {"measurement": "relative viability", "setting": "[8]; first compound 0.006325 µM", "result": 0.497}, {"measurement": "relative viability", "setting": "[8]; first compound 0.02 µM", "result": 0.575}, {"measurement": "relative viability", "setting": "[9]; first compound 0.0002 µM", "result": 0.761}, {"measurement": "relative viability", "setting": "[9]; first compound 0.000632 µM", "result": 0.506}, {"measurement": "relative viability", "setting": "[9]; first compound 0.002 µM", "result": 0.209}, {"measurement": "relative viability", "setting": "[9]; first compound 0.006325 µM", "result": 0.168}, {"measurement": "relative viability", "setting": "[9]; first compound 0.02 µM", "result": 0.0779}, {"measurement": "relative viability", "setting": "[10]; first compound 0.0002 µM", "result": 1.05}, {"measurement": "relative viability", "setting": "[10]; first compound 0.000632 µM", "result": 0.364}, {"measurement": "relative viability", "setting": "[10]; first compound 0.002 µM", "result": 0.265}, {"measurement": "relative viability", "setting": "[10]; first compound 0.006325 µM", "result": 0.195}, {"measurement": "relative viability", "setting": "[10]; first compound 0.02 µM", "result": 0.201}, {"measurement": "relative viability", "setting": "[11]; first compound 0.0002 µM", "result": 0.885}, {"measurement": "relative viability", "setting": "[11]; first compound 0.000632 µM", "result": 0.915}, {"measurement": "relative viability", "setting": "[11]; first compound 0.002 µM", "result": 0.844}, {"measurement": "relative viability", "setting": "[11]; first compound 0.02 µM", "result": 0.116}]}]}
